Experiments:
[1] = tested on: GFP expressing adenovirus (Ad-GFP); experiment: Ad-GFP infection of HEK293A cells; type: cell-based; conditions: for Ad-GFP infection: 0.2-2 μM
From the text: To test the effects of anti-virus infection of benzopyran-4-one derivative compounds, a green fluorescent protein (GFP) expressing adenovirus to visualize adenovirus infection was used. To obtain the reporter virus, the GFP cDNA is amplified from pEGFP-N1 (Clontech, Accession: U55762.1) through a polymerase chain reaction with primers 5′-CACCATGGTGAGCAAGGGC-3′ [SEQ ID NO: 5] and 5′-[…]-3′ [SEQ ID NO: 6], and then cloned into pENTR™/D-TOP vector (Invitrogen). The GFP cDNA was transferred to adenovirus vector pAd/CMV/V5-DEST™ through an in vitro recombination method using LR Clonase® II after the sequence was confirmed. We selected the ampicillin- and […] clones to obtain the pAd-GFP. The pAd-GFP plasmid is then transfected into E1a and E1b expressing HEK293A cells to produce a crude GFP expression adenoviral stock (Ad-GFP). The adenovirus was amplified by infecting HEK293A cells. The adenoviral stock was titered and later used to infect the cells for the analysis.
(§1) To observe the anti-virus effect of the benzopyran-4-one derivative compounds, Ad-GFP and Lenti-GFP at a low MOI of 0.5 were then applied to infect the HEK293A cells and HEK293T cells, respectively. In the prevention group, cells were treated by compounds of Compound I-1 at 0.2, 1, and 2 μM or Compound II-1 at 0.1, 0.5, 1 μM for 30 minutes before Ad-GFP and Lenti-GFP infection. In the treatment group, cells were treated by compounds of Compound I-1 at 0.2, 1, and 2 μM or Compound II-1 at 0.1, 0.5, and 1 μM for 2 hours after Ad-GFP and Lenti-GFP infection. After a total of 6 hours of compounds and virus treatments, cells were washed with Hank's buffered salt solution and a flash culture media was replaced.
(§2) 24 hours after virus infection, the effect of the benzopyran-4-one derivative compounds on the antivirus infection was recorded by observing the GFP positive cells under an inverted fluorescence microscope. The mean fluorescence intensity by flow cytometry in each plate of cells was analyzed for quantification.

Ad-GFP virus replication = Ad-GFP virus replication (supernatant re-infection of HEK293A cells); type: cell-based, adenovirus
Protocol: Ideally, the Ad-GFP virus is replicated within HEK293A cells. To test the effect of benzopyran-4-one derivative compounds on Ad-GFP virus replication, the same virus infection and compound treatment are performed as shown in FIG. 26. At the end of a 24-hour experiment, we collected the Ad-GFP virus from each well of Ad-GFP infected HEK293A using two freeze-thaw cycles and then collected the supernatants. An equal amount of supernatants from each well were then infected with the HEK293A cells, which were newly-prepared 1 day before infection in a 96-well plate at a density of 5×10^4 per well. Finally, the GFP cell images were obtained using the inverted fluorescence microscope and quantified by analyzing the MFI using flow cytometry for each well of cells.

tumor xenografts = conditions: previous studies; cited from earlier work
[2] = tested on: GFP-expressing retrovirus (Lenti-GFP); experiment: Lenti-GFP infection of HEK293T cells; type: cell-based, lentivirus
Protocol: In addition to the test of the benzopyran-4-one derivative compounds on the DNA virus infection, they were tested on the retrovirus using a GFP-expressing retrovirus to visualize the […] infection. […]. Afterward, the lentiviral stock (Lenti-GFP) was titered and used to infect the cells for analysis.
as §1, §2

MDA-MB-231 cells = experiment: Mitotic entry assay (phospho-histone H3 Ser10, nocodazole trap, flow cytometry); type: cell-based, human
From the text: Of these, the G2/M checkpoint involves ATM and ATR in collaboration, whereas the S/M checkpoint is mediated solely by ATR. To maintain genetic integrity, ATR can prevent premature mitotic entry in the event of incomplete DNA replication or unrepaired DNA damage. In order to evaluate the effect of benzopyran-4-one derivatives on these ATR-associated DNA damage checkpoints, we observed the effect of benzopyran-4-one derivatives on mitotic entry following hydroxyurea or cisplatin treatment.
DNA replication was measured using a Click-it EdU assay kit, which is based on incorporation of the thymidine analogue 5-ethynyl-2′-deoxyuridine (EdU) into DNA during replication (Invitrogen). Then, 10 μM EdU was added to the cell culture medium 30 min before the cells were harvested and fixed in 4% paraformaldehyde. After cycloaddition, EdU was detected with Alexa Fluor 647 using click reaction catalyzed by Cu (II), and the DNA content was stained by CellCycle 405-blue. To assay the mitotic entry, cells were treated with the indicated drugs and trapped in 70 nM nocodazole for 16 h, and antibodies against phospho-histone H3 Ser10 and PI were used to stain the mitotic cells and DNA content, respectively. An FITC Annexin V apoptosis detection kit was used to characterize the phenotype of cell death based on PI and Annexin V double staining (BD Pharmingen, San Diego, Calif.). Fluorescence-labeled cells were subsequently analyzed by the BD LSR II flow cytometer with a suitable selection of excitation and emission wavelengths. The percentages of different fluorescent cells were analyzed using WinMDI Ver. 2.9.

[3] = tested on: MDA-MB-231 tumor xenograft; experiment: Human xenograft tumors in nude mice; type: in vivo
From the text: Inhibition of the checkpoint and repair mechanisms leads to chemosensitization in cancers. […] We further treated individual cells with cisplatin in combination with several varying doses of benzopyran-4-one derivatives, and counted survival colonies to determine their ability to survive after cisplatin-induced damage. […] To investigate the chemosensitization effect of low-dose benzopyran-4-one derivatives in vivo, we established a tumor xenograft in nude mice using human MDA-MB-231 tumor cells, which are considered to be more resistant to cisplatin and are also sensitive to treatment with benzopyran-4-one derivatives, at least as compared to A549 cells (FIGS. 4, 17(a) and 17(b)). […] The pharmacokinetic data of Protoapigenone (I-1) and compound II-1 needs to be compared in future studies to determine the differences in the chemical effects of these 2 compounds in vitro and in vivo.
Human breast cancer MAD-MB-231 cells were harvested from the culture, resuspended in medium without serum at 1×10^8 cells/mL, and 0.1 mL of this suspension was subcutaneously injected into the right flank of female nude mice (BALB/cAnN-Foxn1nu/Crl Narl; purchased from the National Science Council Animal Center, Taiwan). Tumor-injected mice that successfully developed tumors that grew to approximately 50-100 mm^3 in volume were randomly sorted into groups and used for the experiments. […]

[4] = post-treatment 2 hours after infection, re-infection
[5] = pre-treatment, 24 hours after re-infection
[6] = pre-treatment, 0.2-2 μM Compound I-1 or 0.1-1 μM Compound II-1
[7] = compound alone (Control group, no DNA-damaging agent)
[8] = compound with Cisplatin (G2/M checkpoint)
[9] = compound with Hydroxyurea (S/M checkpoint)
[10] = post-treatment 2 hours after infection, 0.1-1 μM
[11] = pre-treatment 30 minutes before infection, 0.1-1 μM, MOI 0.5, 24 hours

Row | SMILES | MFI of GFP protein (Ad-GFP virus replication; [4]) | Number of GFP cells (Ad-GFP virus replication; [4]) | MFI of GFP protein (Ad-GFP virus replication; [5]) | Number of GFP cells (Ad-GFP virus replication; [5]) | Size of tumor xenografts (tumor xenografts) | Toxic effects on the recipient (tumor xenografts) | MFI of GFP protein [2, 6] | The percentage of mitotic cells (MDA-MB-231 cells; [7]) | The percentage of mitotic cells (MDA-MB-231 cells; [8]) | The percentage of mitotic cells (MDA-MB-231 cells; [9]) | also measured
1 | O=C1C=CC(O)(c2cc(=O)c3c(O)cc(O)cc3o2)C=C1 [Compound I-1, Protoapigenone] | significant decreased | significant decreased | significantly decreased | significantly decreased | reduce the size of tumor xenografts | without exerting toxic effects on the recipient | significantly decreased | 23.69 ± 0.94% | 7.99 ± 0.91% | 3.40 ± 0.41% | Ad-GFP infection ([1]; post-treatment): did not inhibit the Ad-GFP infection; Ad-GFP infection ([1]; pre-treatment): did not prevent the Ad-GFP infection; MFI of GFP protein ([2]; post-treatment, 2 μM): showed an inhibition effect; Cisplatin sensitivity of MDA-MB-231 tumors ([3]; 2 mg/kg (data not shown)): did not affect the cisplatin sensitivity
2 | O=C1C=CC(O)(c2cc(=O)c3c(ccc4ccccc43)o2)C=C1 [Compound II-1, 3-(1-hydroxy-4-oxo-cyclohexa-2,5-dienyl)-1H-benzo[f]chromen-1-one] | significant decreased | significant decreased | significantly decreased | significantly decreased | reduce the size of tumor xenografts | without exerting toxic effects on the recipient | significantly decreased | 12.05 ± 0.68% | 8.14 ± 0.99% | 10.49 ± 1.17% | MFI of GFP protein [1, 10]: decreased; Number of GFP cells [1, 10]: decreased; Mean fluorescence intensity (MFI) of GFP protein [1, 11]: decreased; Number of GFP cells [1, 11]: decreased; inhibition at 1 µM ([1]; unidentified adenovirus, HEK293-A, read-out: Virus inhibition effect): 50 to 99%; MFI of GFP protein [2, 10]: significantly decreased; Tumor inhibitory effect ([3]; 0.2 mg/kg with 2 mg/kg cisplatin, intraperitoneally every 4 d): greater than that of cisplatin treatment alone

Source: patent US11413267B2, “Methods and compositions for inhibition of ATR and FANCD2 activation” (priority 2012, dated 2022)
